Test results from patent publication US11938114B2, “Bacterial efflux pump inhibitors” (priority 2017, dated 2024).
Where a name gives a salt, the structure may show the parent alone. Marks after values point to notes of the source that are not given here.

Key:
P. aeruginosa ATCC 27853 [1] = experiment: Standard EPI assay: MIC of test antibiotic (levofloxacin, cefepime) in absence and presence of EPI; type: cell-based, Pseudomonas aeruginosa; details: for Enhanced Activity in P. aeruginosa (fold enhancement of antibiotic activity): levofloxacin as antibiotic, Pseudomonas aeruginosa ATCC 27853
Experimental: (§1) MIC assays were conducted in accordance with Clinical and Laboratory Standards Institute (CLSI) guidelines for broth microdilution.
(§2) The EPI assay for the purposes of these studies represents a MIC assay in which the MIC of the antibiotic against the bacteria is tested in the presence of an experimental efflux pump inhibitor (EPI). […] Using serial dilutions of the EPI, its enhancement of antibiotic activity was then evaluated. […] For the evaluation of the efficacy of an EPI against bacteria that were pre-exposed to an antibiotic, the inoculum of bacteria that used was developed from a bacterial culture isolated as a single colony following exposure at […] the MIC of the antibiotic (so as to induce efflux pump expression), was to be used in combination with the EPI.
(§3) The MIC of the test antibiotic is determined in the absence and presence of sub-inhibitory concentrations of the EPI. Initially, the sub-inhibitory concentration used was ½×MIC of the EPI. […] Similar methodology was employed to examine the synergy with Escherichia coli ATCC 25922 in the presence of varied concentrations of these EPIs using clarithromycin as the antibiotic.

[2] = tested on: Escherichia coli ATC 25922; experiment: Bacterial EPI assay: MIC of clarithromycin in the presence of EPI; type: cell-based; details: clarithromycin as antibiotic
Experimental: as §1, §2, §3

[3] = tested on: P. aeruginosa ATCC 27853 pre-exposed to cefepime; experiment: Pre-exposure bacterial EPI assay; type: cell-based, Pseudomonas aeruginosa
Experimental: as §2
The principle underlying this pre-exposure is that exposure of the bacteria to sub-inhibitory concentrations of the test antibiotic will induce expression of efflux pumps, if any, and may represent the scenario in vivo more accurately.

[4] = tested on: P. aeruginosa [ATCC 27853]; experiment: Mouse septicemia model of infection; type: in vivo, Pseudomonas aeruginosa; details: mice, Experiment #489, cefepime, 10 mg/ml b.i.d.
Experimental: A general method for the in vivo assessment of bacterial EPIs is complicated by the fact that that both the antibiotic and the EPI need to be present for synergy to be achieved. A general method was discovered that has proven to be effective in establishing the relative efficacy of bacterial EPIs in a mouse septicemia model. The bacterial EPI is administered initially intravenously to mice with septicemia, followed 5 minutes later by the intravenous administration or oral administration of the antibiotic. A second administration of the EPI is then administered subcutaneously after an additional 5 minutes to act as a booster, followed by the final administration of the antibiotic either intravenously or orally after the second administration of the EPI. […] In a few instances, a second regiment of both EPI and antibiotic as administered on day 1 was required after 24 hours to affect cures.
Determination of the in vivo efficacy of bacterial efflux pump inhibitors (EPIs) can be efficiently determined using a mouse septicemia model of infection. The systemic infection is initiated by a 500 ul intraperitoneal injection of an inoculum containing bacteria (such as P. aeruginosa [ATCC 27853]) at a concentration of approximately 5×10^5 cells in 5% mucin in Swiss Webster female mice. […]

P. aeruginosa ATCC 27853 [5] = experiment: Intrinsic MIC assay (CLSI broth microdilution); type: cell-based; details: Pseudomonas aeruginosa, ATCC27853, read-out: intrinsic MIC of the EPI
Experimental: as §1
The intrinsic MIC of the experimental EPIs was tested with the method described. The 2-fold serial dilution begin with 100 μg/mL of tested compound in the first column of the 96-well plates.
The following Gram-negative bacterial strains were included in these assays: • Escherichia coli ATCC 25922 • Klebsiella pneumoniae ATCC 13883 and ATCC 10031 • Pseudomonas aeruginosa ATCC 27853. • Acinetobacter baumannii ATCC 19606 Bacterial EPI Assays Tier 1 Testing

[6] = P. aeruginosa ATCC 27853, 6.25 μg/mL of the EPI

**Q.** `Cl.Cl.NC[C@@H]1CNC(CNC(=O)c2cc(-c3ccc(C(F)(F)F)cc3)cc(-c3ccc(C(F)(F)F)cc3)c2)C1` (stereo in doubt) [Example 9, N-(((2R,4R)-4-(Aminomethyl)pyrrolidin-2-yl)methyl)-4,4″-bis(trifluoromethyl)-[1,1′:3′,1″-terphenyl]-5′-carboxamide hydrochloride salt] was tested. Which “Enhanced Activity in P. aeruginosa (fold enhancement of antibiotic activity)” value (P. aeruginosa ATCC 27853 [1]; EPI at 12.5 μg) did it give?
**A.** 4x/12.5 μg

**Q.** For `Cl.Cl.N[C@@H]1CN[C@H](CNC(=O)c2cc(-c3ccc(F)cc3)cc(-c3ccc(F)cc3)c2)C1` [Example 1, N-(((2S, 4S)-4-aminopyrrolidin-2-yl)methyl)-4,4″-difluoro-[1, 1′:3′, 1′-terphenyl]-5′-carboxamide dihydrochloride], which “Enhanced Activity in E. coli (fold enhancement of antibiotic activity)” value ([2]; EPI at 6.25 μg) is on record?
**A.** 64x/6.25 μg

**Q.** And the “Enhanced Activity in P. aeruginosa (fold enhancement of antibiotic activity)” value (P. aeruginosa ATCC 27853 [1]; EPI at 6.25 μg)?
**A.** 2x/6.25 μg

**Q.** For `CC(C)(C(=O)NC[C@@H]1C[C@H](N)CN1)c1cc(-c2ccc(F)cc2)cc(-c2ccc(F)cc2)c1.Cl.Cl` [Example 2], which “Enhanced Activity in E. coli (fold enhancement of antibiotic activity)” value ([2]; EPI at 6.25 μg) is on record?
**A.** 8x/6.25 μg

**Q.** What does the source list for `CC(C)(N)C1CN[C@H](CNC(=O)c2cc(-c3ccc(F)cc3)cc(-c3ccc(F)cc3)c2)C1.Cl.Cl` (stereo partly drawn) [Example 3, N-(((2S)-4-(2-aminopropan-2-yl)pyrrolidin-2-yl)methyl)-4,4″-difluoro-[1,1′:3′, 1″-terphenyl]-5′-carboxamide dihydrochloride]?
**A.** Enhanced Activity in E. coli (fold enhancement of antibiotic activity) ([2]; EPI at 12.5 μg): 1024x/12.5 μg; Enhanced Activity in P. aeruginosa (fold enhancement of antibiotic activity) (P. aeruginosa ATCC 27853 [1]; EPI at 12.5 μg): 32x/12.5 μg

**Q.** Which results are given for `Cl.Cl.NC[C@@H]1CN[C@H](CNC(=O)c2cc(-c3ccc(F)cc3)cc(-c3ccc(F)cc3)c2)C1` [Example 4, N-(((2S,4R)-4-(aminomethyl)pyrrolidin-2-yl)methyl)-4,4″-difluoro-[1,1′:3′,1″-terphenyl]-5′-carboxamide dihydrochloride]?
**A.** Enhanced Activity in E. coli (fold enhancement of antibiotic activity) ([2]; EPI at 3.125 μg): 512x/3.125 μg; MIC of cefepime against cefepime-exposed P. aeruginosa in the presence of EPI ([3]; 6.25 μg/mL of the EPI): 0.25 µg/mL; reduction of MIC of cefepime against cefepime-exposed P. aeruginosa ([3]; 6.25 μg/mL of the EPI): 64 fold; % Survival (72 hr) Antibiotic + EPI ([4]; 250 ul + Example 4, 2.0 mg/ml b.i.d.): 100%; MIC (P. aeruginosa ATCC 27853 [5]): 12.5 µg/mL; MIC of levofloxacin in the presence of EPI (P. aeruginosa ATCC 27853 [1]; P. aeruginosa ATCC 27853, 6.25 μg/mL (½×MIC) of the EPI): 0.016 µg/mL; MIC of cefepime in the presence of EPI (P. aeruginosa ATCC 27853 [1]; [6]): 0.125 µg/mL; decrease of the MIC of cefepime relative to absence of EPI (P. aeruginosa ATCC 27853 [1]; [6]): 16 fold; reduction of the MIC of levofloxacin relative to absence of EPI (P. aeruginosa ATCC 27853 [1]; [6]): 64 fold; Enhanced Activity in P. aeruginosa (fold enhancement of antibiotic activity) (P. aeruginosa ATCC 27853 [1]; EPI at 6.25 μg): 64x/6.25 μg

**Q.** What does the source list for `Cl.Cl.NC[C@H]1CN[C@H](CNC(=O)c2cc(-c3ccc(F)cc3)cc(-c3ccc(F)cc3)c2)C1` [Example 5, N-(((2S,4S)-4-(aminomethyl)pyrrolidin-2-yl)methyl)-4,4″-difluoro-[1,1′:3′,1″-terphenyl]-5′-carboxamide dihydrochloride]?
**A.** Enhanced Activity in E. coli (fold enhancement of antibiotic activity) ([2]; EPI at 6.25 μg): 1024x/6.25 μg; Enhanced Activity in P. aeruginosa (fold enhancement of antibiotic activity) (P. aeruginosa ATCC 27853 [1]; EPI at 6.25 μg): 32x/6.25 μg

**Q.** What does the source list for `Cl.Cl.NC[C@@H]1CN[C@H](COc2cc(-c3ccc(F)cc3)cc(-c3ccc(F)cc3)c2)C1` [Example 6, ((3R,5S)-5-(((4,4″-difluoro-[1,1′:3′,1″-terphenyl]-5′-yl)oxy)methyl)pyrrolidin-3-yl)methanamine dihydrochloride]?
**A.** Enhanced Activity in E. coli (fold enhancement of antibiotic activity) ([2]; EPI at 3.125 μg): 32x/3.125 μg; Enhanced Activity in P. aeruginosa (fold enhancement of antibiotic activity) (P. aeruginosa ATCC 27853 [1]; EPI at 6.25 μg): 1x/6.25 μg

**Q.** What does the source list for `Cl.Cl.NC[C@H]1CN[C@H](COc2cc(-c3ccc(F)cc3)cc(-c3ccc(F)cc3)c2)C1` [Example 7]?
**A.** Enhanced Activity in E. coli (fold enhancement of antibiotic activity) ([2]; EPI at 3.125 μg): 64x/3.125 μg; Enhanced Activity in P. aeruginosa (fold enhancement of antibiotic activity) (P. aeruginosa ATCC 27853 [1]; EPI at 6.25 μg): 2x/6.25 μg

**Q.** What does the source list for `NC[C@@H]1C[C@H](Oc2cc(-c3ccc(F)cc3)cc(-c3ccc(F)cc3)c2)CN1` [Example 8, ((2S,4S)-4-((4,4″-difluoro-[1,1′:3′,1″-terphenyl]-5′-yl)oxy)pyrrolidin-2-yl)methanamine]?
**A.** Enhanced Activity in E. coli (fold enhancement of antibiotic activity) ([2]; EPI at 6.25 μg): 2x/6.25 μg; Enhanced Activity in P. aeruginosa (fold enhancement of antibiotic activity) (P. aeruginosa ATCC 27853 [1]; EPI at 12.5 μg): 1x/12.5 μg

**Q.** Which “Enhanced Activity in E. coli (fold enhancement of antibiotic activity)” value ([2]; EPI at 6.25 μg) does the source give for `CC(C)(C(=O)NC[C@@H]1C[C@H](CN)CN1)c1cc(-c2ccc(F)cc2)cc(-c2ccc(F)cc2)c1` [Example 10, N-(((2S,4R)-4-(aminomethyl)pyrrolidin-2-yl)methyl)-2-(4,4″-difluoro-[1,1′:3′,1″-terphenyl]-5′-yl)-2-methylpropanamide hydrochloride salt] here?
**A.** 512x/6.25 μg

**Q.** For `CN1C[C@H](CN)C[C@H]1CNC(=O)c1cc(-c2ccc(F)cc2)cc(-c2ccc(F)cc2)c1` [Example 11, N-(((2S,4S)-4-(aminomethyl)-1-methylpyrrolidin-2-yl)methyl)-4,4″-difluoro-[1,1′:3′,1″-terphenyl]-5′-carboxamide hydrochloride salt], which “Enhanced Activity in E. coli (fold enhancement of antibiotic activity)” value ([2]; EPI at 6.25 μg) is on record?
**A.** 128x/6.25 μg

**Q.** With `CN(C)C[C@H]1CN[C@H](CNC(=O)c2cc(-c3ccc(F)cc3)cc(-c3ccc(F)cc3)c2)C1` [Example 12, N-(((2S,4R)-4-((dimethylamino)methyl)pyrrolidin-2-yl)methyl)-4,4″-difluoro-[1,1′:3′,1″-terphenyl]-5′-carboxamide hydrochloride salt] as the compound, how does the “Enhanced Activity in E. coli (fold enhancement of antibiotic activity)” value ([2]; EPI at 25 μg) read?
**A.** 2x/25 μg

**Q.** What does the source list for `CNC[C@@H]1CN[C@H](CNC(=O)c2cc(-c3ccc(F)cc3)cc(-c3ccc(F)cc3)c2)C1` [Example 14, 4,4″-difluoro-N-(((2S,4R)-4-((methylamino)methyl)pyrrolidin-2-yl)methyl)-[1,1′:3′,1″-terphenyl]-5′-carboxamide hydrochloride salt]?
**A.** Enhanced Activity in E. coli (fold enhancement of antibiotic activity) ([2]; EPI at 6.25 μg): 64x/6.25 μg; Enhanced Activity in P. aeruginosa (fold enhancement of antibiotic activity) (P. aeruginosa ATCC 27853 [1]; EPI at 12.5 μg): 32x/12.5 μg

**Q.** How did the “increase of MIC of cefepime against pre-exposed versus unexposed P. aeruginosa” value ([3]; pre-exposed to cefepime, no EPI) turn out when `CO/N=C(\C(=O)N[C@@H]1C(=O)N2C(C(=O)[O-])=C(C[N+]3(C)CCCC3)CS[C@H]12)c1csc(N)n1` [cefepime, reference compound] was run?
**A.** 8 fold

**Q.** And the “% Survival (72 hr) Antibiotic Only” value ([4]; 250 ul)?
**A.** 0%****
